We go through 2 compounds from US20070141028A1, “Cancer gene therapeutic drug” (priority 2003, published 2007).

Common to all, as to format: cell-based
The subject of assay [1] is cancer cells. Nature of the assay: β-gal assay of adenovirus infectivity. The text has this:
(§1) That is, ALA and Fe can enhance antitumor effect, because they can increase the infectivity of adenovirus to cancer cells and the amount of virus production within the cells.

Assay [2] concerns cancer cells. In words: PFU assay of adenovirus production.
Excerpt: as §1

Another assay deals with ovarian cancer cells HEY. Nature of the assay: Influence of Fe and ALA on the proliferation inhibitory effect of adenovirus AdE3-1A1.3B (virus rate at IC50). The conditions noted are these: IC50 after five days. The protocol:
Ovarian cancer cells HEY were cultured in 12-well plate at a rate of 10,000 cells/well and FeSO4 was added at a concentration of 50 μg/ml, 5 μg/ml, 0.5 μg/ml or 0 μg/ml on the following day and the cytolysis type adenovirus AdE3-1A1.3B was added to all wells. The proliferation inhibitory effect of the adenovirus was evaluated by IC50 after five days.
Next, the ovarian cancer cell line HEY was cultured in a 12-well plate at a rate of 10,000 cells/well and 5-aminolevulinic acid (ALA) was added at a concentration of 50 μg/ml, 5 μg/ml, 0.5 μg/ml or 0 μg/ml on the following day and the cytolysis type adenovirus AdE3-1A1.3B was added to all wells. The proliferation inhibitory effect of the adenovirus was evaluated by IC50 after five days.
Furthermore, the ovarian cancer cell line HEY was cultured in a 12-well plate at a rate of 10,000 cells/well and FeSO4 was added at a concentration of 50 μg/ml, 5 μg/ml, 0.5 μg/ml or 0 μg/ml on the following day. In addition, the cytolysis type adenovirus AdE3-1A1.3B and 50 μg/ml of 5-aminolevulinic acid (ALA) were added to each well. Only the adenovirus was added to a control. The proliferation inhibitory effect of the adenovirus was evaluated by IC50 after five days.

As for `NCC(=O)CCC(=O)O` [ALA, 5-aminolevulinic acid], the infectivity of adenovirus entry in the assay with cancer cells [1] is reported as “increased infectivity of adenovirus”. In addition, the “amount of adenovirus production” value in the assay on cancer cells [2] is reported as “increased amount of adenovirus production”. The “proliferation inhibitory effect relative to only adenovirus administration” value with ovarian cancer cells HEY (50 μg/ml ALA + AdE3-1A1.3B) is recorded as “about 100 fold”.

In the case of ferrous sulfate [FeSO4], the “proliferation inhibitory effect relative to only adenovirus administration” value in the assay on ovarian cancer cells HEY (0.5 μg/ml FeSO4 + 50 μg/ml ALA + AdE3-1A1.3B) was “about 200 fold”; in the assay on ovarian cancer cells HEY (5 μg/ml FeSO4 + 50 μg/ml ALA + AdE3-1A1.3B), “about 700 fold”; in the assay with ovarian cancer cells HEY (5 μg/ml FeSO4 + AdE3-1A1.3B), “about 8 fold”; with ovarian cancer cells HEY (50 μg/ml FeSO4 + 50 μg/ml ALA + AdE3-1A1.3B), “about 1,000 fold”; with ovarian cancer cells HEY (50 μg/ml FeSO4 + AdE3-1A1.3B) it was “about 20 fold”.
